Data: ChEMBL document CHEMBL3745649, “Structure-activity relationship study of anticancer thymidine-quinoxaline conjugates under the low radiance of long wavelength ultraviolet light for photodynamic therapy” (Eur J Med Chem, 2016)
Activity calls are given as the source filed them. The calls are words filed in the database; no cut-off is given here.

Assays:
[1] = Dark toxicity against human Bel7402 cells assessed as cell viability after 53 hrs by CCK8 assay in absence of UVA-1 irradiation; assay type: cell-based, Bel-7402
[2] = Dark toxicity against human PANC1 cells assessed as cell viability after 53 hrs by CCK8 assay in absence of UVA-1 irradiation; assay type: cell-based, PANC-1
[3] = Photocytotoxicity against human Bel7402 cells assessed as cell viability preincubated for 5 hrs followed by UVA-1 irradiation at 0.85 mW/cm'2 for 20 mins measured after 48 hrs by CCK8 assay; assay type: functional, cell-based; conditions: Bel-7402, light or radiation study
[4] = Photocytotoxicity against human PANC1 cells assessed as cell viability preincubated for 5 hrs followed by UVA-1 irradiation at 0.85 mW/cm'2 for 20 mins measured after 48 hrs by CCK8 assay; assay type: functional, cell-based; conditions: PANC-1, light or radiation study
PANC-1 [5] = experiment: Photocytotoxicity against human PANC1 cells assessed as production of reactive oxygen stress at 5 uM preincubated for 5 hrs followed by UVA-1 irradiation at 0.85 mW/cm'2 for 20 mins measured for 10 mins by DCFH-DA based fluorescence microscopic analysis; assay type: functional, cell-based
PANC-1 [6] = experiment: Antioxidant activity in human PANC1 cells assessed as reduction of reactive oxygen stress level at 5 uM after 15 mins by DCFH-DA based fluorescence assay in absence of H2O2; assay type: functional, cell-based
PANC-1 [7] = experiment: Antioxidant activity in human PANC1 cells assessed as reduction of H2O2-induced reactive oxygen stress level at 5 uM after 15 mins by DCFH-DA based fluorescence assay; assay type: functional, cell-based
Bel-7402 = experiment: Photocytotoxicity against human Bel7402 cells assessed as production of reactive oxygen stress at 5 uM preincubated for 5 hrs followed by UVA-1 irradiation at 0.85 mW/cm'2 for 20 mins measured for 10 mins by DCFH-DA based fluorescence microscopic analysis; assay type: functional, cell-based
HepG2 = experiment: Cytotoxicity against human HepG2 cells assessed as cell viability after 72 hrs by MTT assay; assay type: functional, cell-based; conditions: HepG2, 72 h
[8] = Cytotoxicity against human Hep3B cells assessed as cell viability after 72 hrs by MTT assay; assay type: functional, cell-based, Hep 3B2
H22 = experiment: Cytotoxicity against […] cells assessed as cell viability after 72 hrs by MTT assay; assay type: functional, cell-based; conditions: Mus musculus, H22, 72 h
C6 = experiment: Cytotoxicity against rat C6 cells assessed as cell viability after 72 hrs by MTT assay; assay type: functional, cell-based; conditions: C6, 72 h
MCF7 = experiment: Cytotoxicity against human MCF7 cells assessed as cell viability after 72 hrs by MTT assay; assay type: functional, cell-based; conditions: MCF7, 72 h
[9] = Photocytotoxicity against human PANC1 cells assessed as cell viability preincubated for 5 hrs with cells followed by UVA-1 irradiation at 3.0 mW/cm'2 for 20 mins measured after 48 hrs by CCK8 assay; assay type: functional, cell-based; conditions: PANC-1, light or radiation study
[10] = Photocytotoxicity against human Bel7402 cells assessed as cell viability preincubated for 5 hrs with cells followed by UVA-1 irradiation at 3.0 mW/cm'2 for 20 mins measured after 48 hrs by CCK8 assay; assay type: functional, cell-based; conditions: Bel-7402, light or radiation study
[11] = Cytotoxicity against human Bel7402 cells assessed as viable cells at 50 uM; assay type: functional; conditions: Bel-7402, read-out: Activity
[12] = Cytotoxicity against human PANC1 cells assessed as viable cells at 50 uM; assay type: functional; conditions: PANC-1, read-out: Activity

SMILES | EC50 at 53 h [1] [µM] | EC50 at 53 h [2] [µM] | EC50 [3] [µM] | EC50 [4] [µM] | other results
Cc1cn([C@H]2C[C@H](n3cc(CCCC(=O)Nc4cc5ccc6cccc7ccc(c4)c5c67)nn3)[C@@H](CO)O2)c(=O)[nH]c1=O | > 50 | > 50 | > 20 | > 20 | –
Cc1cn([C@H]2C[C@H](n3cc(CNC(=O)CCCCCOc4ccc5c(c4)C(=O)C(=O)[C@@H]4C(C)(C)CCC[C@]54C)nn3)[C@@H](CO)O2)c(=O)[nH]c1=O | > 50 | > 50 | > 20 | > 20 | –
Cc1cn([C@H]2C[C@H](n3cc(CNC(=O)CCCCCCCOc4ccc5c(c4)-c4nc6ccccc6nc4[C@@H]4C(C)(C)CCC[C@]54C)nn3)[C@@H](CO)O2)c(=O)[nH]c1=O | 10 | ≥ 50 | 4 | 5.7 | –
Cc1cn([C@H]2C[C@H](n3cc(CNC(=O)CCCCCCCOc4ccc5c(c4)-c4nc6ccccc6nc4[C@H]4C(C)(C)CCC[C@]54C)nn3)[C@@H](CO)O2)c(=O)[nH]c1=O | 10 | > 50 | 5.6 | 8.1 | –
Cc1cn([C@H]2C[C@H](n3cc(CNC(=O)CCCCCOc4ccc5c(c4)-c4nc6ccc(F)cc6nc4[C@@H]4C(C)(C)CCC[C@]54C)nn3)[C@@H](CO)O2)c(=O)[nH]c1=O | 10 | ≥ 50 | 7.4 | 13.5 | –
Cc1cn([C@H]2C[C@H](n3cc(CNC(=O)CCCCCOc4ccc5c(c4)-c4nc6ccccc6nc4[C@H]4C(C)(C)CCC[C@]54C)nn3)[C@@H](CO)O2)c(=O)[nH]c1=O | > 20 | > 50 | 5.1 | 11.3 | –
CC1(C)CCC[C@]2(C)c3ccc(OCCCCCC(=O)NCc4cn([C@@H]5O[C@H](CO)[C@H](O)[C@H](O)[C@H]5O)nn4)cc3-c3nc4ccccc4nc3[C@H]12 | > 50 | > 50 | > 20 | > 20 | Activity (PANC-1 [5]): inactive; Activity (PANC-1 [6]): Active; Activity (PANC-1 [7]): Active; Activity (Bel-7402): inactive
Cc1cn([C@H]2C[C@H](n3cc(CNC(=O)CCCCCOc4ccc5c(c4)-c4nc6ccccc6nc4[C@@H]4C(C)(C)CCC[C@]54C)nn3)[C@@H](CO)O2)c(=O)[nH]c1=O | 10 | ≥ 50 | 4.2 | 9.8 | Activity (PANC-1 [5]): Active; Activity (PANC-1 [7]): Active; Activity (Bel-7402): Active; EC50 (HepG2): 6 µM; EC50 [8]: 6 µM; EC50 (H22): 6 µM; EC50 (C6): 6 µM; EC50 (MCF7): 6 µM
[N-]=[N+]=N[C@@H]1O[C@H](CO)[C@H](O)[C@H](O)[C@H]1O | – | – | – | – | Activity (PANC-1 [7]): Active
Cc1cn([C@H]2C[C@H](n3cc(CNC(=O)CCCCCOc4ccc5c(c4)-c4nc6cc(F)ccc6nc4[C@@H]4C(C)(C)CCC[C@]54C)nn3)[C@@H](CO)O2)c(=O)[nH]c1=O | 10 | 20 | 4 | 7 | –
Cc1cn([C@H]2C[C@H](n3cc(CNC(=O)CCCCCOc4ccc5c(c4)-c4nc6cc(Br)c(Br)cc6nc4[C@@H]4C(C)(C)CCC[C@]54C)nn3)[C@@H](CO)O2)c(=O)[nH]c1=O | > 20 | ≥ 50 | 2.1 | 5.8 | –
CCN(CC)CCNC(=O)c1c(C)[nH]c(/C=C2\C(=O)Nc3ccc(F)cc32)c1C [SUNITINIB] | – | – | – | – | EC50 [9]: 13 µM; EC50 [10]: 11 µM
Nc1ccn([C@@H]2O[C@H](CO)[C@@H](O)C2(F)F)c(=O)n1 [GEMCITABINE] | – | – | – | – | viability at 50 µM [11]: < 20%; viability at 50 µM [12]: < 20%
Cc1cn([C@H]2C[C@H](n3cc(CNC(=O)COc4ccc5c(c4)-c4nc6ccccc6nc4[C@@H]4C(C)(C)CCC[C@]54C)nn3)[C@@H](CO)O2)c(=O)[nH]c1=O | > 20 | 20 | 12.5 | > 20 | –
Cc1cn([C@H]2C[C@H](n3cc(CNC(=O)CCCOc4ccc5c(c4)-c4nc6ccccc6nc4[C@@H]4C(C)(C)CCC[C@]54C)nn3)[C@@H](CO)O2)c(=O)[nH]c1=O | > 20 | 20 | 10.9 | > 10 | –
